Where “and” joins values, the source holds several entries; their conditions need not be identical. Identical values can stand only once.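 Briefly, cells in 96-well plates were exposed to five compound concentrations for 48 h, and endpoints were estimated by linear interpolation. The concentration for 50% growth inhibition is given as GI50. TGI is the concentration that stops growth completely.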
Tested on: SK-MEL-5 melanoma
Assay: NCI anticancer screen, dose series, 48 h

Question: How did the GI50 turn out when `CC(SC(C)C(=O)N/N=C/c1cccc(Cl)c1)C(=O)N/N=C\c1cccc(Cl)c1` (stereo not drawn) was run?
Answer: The GI50 was 16.3 µM.

Question: And the TGI?
Answer: Its TGI is 31.4 µM.

Question: For `CCOC(=O)/C=C/C(C(=O)/C=C/c1ccc(OC2CCCCO2)c(OC)c1)=C(O)\C=C\c1ccc(OC2CCCCO2)c(OC)c1` (stereo not drawn), which GI50 is on record?
Answer: Its GI50 is 4.44 µM.

Question: And the TGI?
Answer: Its TGI is 16.5 µM.

Question: With `Cc1ccc(Cl)cc1Nc1nc(C(F)(F)F)ccc1C(=O)N1CCN(c2ccc(F)cc2)CC1` as the molecule, how does the GI50 read?
Answer: The GI50 was 12 µM.

Question: What about the TGI of the same molecule?
Answer: Its TGI is 24.3 µM.

Question: Which GI50 does the source give for `O=C(Nc1ccc(OS(=O)(=O)c2ccccc2)cc1)C12CC3CC(CC(C3)C1)C2` here?
Answer: The GI50 was 3.12 µM.

Question: And the TGI?
Answer: Its TGI is > 100 µM.

Question: How did the GI50 turn out when `O=S(=O)([O-])c1ccc2c(c1)-c1nc-2nc2[n-]c(nc3nc(nc4[n-]c(n1)c1ccc(S(=O)(=O)[O-])cc41)-c1cc(S(=O)(=O)[O-])ccc1-3)c1ccc(S(=O)(=O)[O-])cc21.[Cu+2].[Na+]` was run?
Answer: Its GI50 is > 100 µM.

Question: What about the TGI of the same molecule?
Answer: Its TGI is > 100 µM.

Question: `CCN1CCN(c2ccc(Nc3cc(N(C)C(=O)Nc4c(Cl)c(OC)cc(OC)c4Cl)ncn3)cc2)CC1` was tested. Which GI50 did it give?
Answer: The GI50 was 4.27 µM.

Question: What about the TGI of the same molecule?
Answer: Its TGI is 8.47 µM.

Question: For `CC(C)c1ccc(Nc2ccc3c(OCCCN4CCN(C)CC4)cccc3n2)cc1`, which GI50 is on record?
Answer: The GI50 was 15.3 µM.

Question: What about the TGI of the same molecule?
Answer: The TGI was 30.2 µM.

Question: What does the source list for `COc1ccc(N(C)c2ncnc3occ(C)c23)cc1`?
Answer: GI50: < 0.01 µM; TGI: < 0.0149 µM

Question: `COc1ccc2c(c1)C(C)Cc1c(Cl)ncnc1N2C` (stereo not drawn) was tested. Which GI50 did it give?
Answer: Its GI50 is 0.188 µM.

Question: What about the TGI of the same molecule?
Answer: Its TGI is 0.353 µM.

Question: `COCCOc1cc(F)c2c(Nc3ccc(NC(=O)Cn4cc(C(C)C)nn4)cc3)ncnc2c1` was tested. Which GI50 did it give?
Answer: The GI50 was 24.3 µM.

Question: What about the TGI of the same molecule?
Answer: The TGI was > 100 µM.

Question: `C#Cc1cccc(Nc2ncnc3cc(OC)c(OCCCCCCC(=O)NO)cc23)c1` was tested. Which GI50 did it give?
Answer: The GI50 was 0.177 µM.

Question: What about the TGI of the same molecule?
Answer: The TGI was 0.496 µM.

Question: With `Cc1nnc(S(=O)(=O)c2ccc(N=Nc3c(N)nc(N)nc3N)cc2)s1` as the molecule, how does the TGI read?
Answer: The TGI was > 100 µM.

Question: With `O=c1n(CC2CO2)c(=O)n(CC2CO2)c(=O)n1CC1CO1` (stereo not drawn) as the molecule, how does the GI50 read?
Answer: Its GI50 is 16.8 µM and 25.3 µM and 9.6 µM.

Question: And the TGI?
Answer: Its TGI is 37.3 µM and 79.6 µM and 75.6 µM.

Question: Which GI50 does the source give for `Cc1ccc(C(SCC(N)C(=O)O)(c2ccccc2)c2ccc(C)cc2)cc1` (stereo not drawn) here?
Answer: The GI50 was 0.0465 µM.

Question: What about the TGI of the same molecule?
Answer: The TGI was 13.8 µM.

Question: `COc1cc(Nc2cn[nH]c2-c2ccc(Cl)cc2)cc(OC)c1OC` was tested. Which GI50 did it give?
Answer: The GI50 was 3.58 µM.

Question: What about the TGI of the same molecule?
Answer: Its TGI is 14.6 µM.

Question: For `O=C(c1ccccc1)c1cc(Cl)ccc1OCCCCN1CCN(CCCCOc2ccc(Cl)cc2C(=O)c2ccccc2)CC1`, which GI50 is on record?
Answer: Its GI50 is 2.34 µM.

Question: What about the TGI of the same molecule?
Answer: Its TGI is 4.88 µM.

Question: `CNCCNc1c2c(c(NCCNC)c3c(CN(C)C)c[nH]c13)C(=O)c1ccccc1C2=O` was tested. Which GI50 did it give?
Answer: Its GI50 is 2.98 µM.

Question: What about the TGI of the same molecule?
Answer: Its TGI is 14.2 µM.

Question: For `Clc1ccc2c(NCCCNc3nccc(Nc4ccc(Br)cc4)n3)ccnc2c1`, which GI50 is on record?
Answer: Its GI50 is 1.48 µM.

Question: And the TGI?
Answer: The TGI was 2.84 µM.

Tested on: SN12C renal
Assay: NCI anticancer screen, dose series, 48 h

Question: Which results are given for `CC(SC(C)C(=O)N/N=C/c1cccc(Cl)c1)C(=O)N/N=C\c1cccc(Cl)c1` (stereo not drawn)?
Answer: GI50: 12.1 µM; TGI: 53.9 µM

Question: Which GI50 does the source give for `CCOC(=O)/C=C/C(C(=O)/C=C/c1ccc(OC2CCCCO2)c(OC)c1)=C(O)\C=C\c1ccc(OC2CCCCO2)c(OC)c1` (stereo not drawn) here?
Answer: Its GI50 is 2.16 µM.

Question: And the TGI?
Answer: Its TGI is 4.96 µM.

Question: Which GI50 does the source give for `Cc1ccc(Cl)cc1Nc1nc(C(F)(F)F)ccc1C(=O)N1CCN(c2ccc(F)cc2)CC1` here?
Answer: Its GI50 is 15 µM.

Question: And the TGI?
Answer: Its TGI is 28.6 µM.

Question: With `O=C(Nc1ccc(OS(=O)(=O)c2ccccc2)cc1)C12CC3CC(CC(C3)C1)C2` as the molecule, how does the GI50 read?
Answer: Its GI50 is > 100 µM.

Question: And the TGI?
Answer: Its TGI is > 100 µM.

Question: How did the GI50 turn out when `O=S(=O)([O-])c1ccc2c(c1)-c1nc-2nc2[n-]c(nc3nc(nc4[n-]c(n1)c1ccc(S(=O)(=O)[O-])cc41)-c1cc(S(=O)(=O)[O-])ccc1-3)c1ccc(S(=O)(=O)[O-])cc21.[Cu+2].[Na+]` was run?
Answer: The GI50 was > 100 µM.

Question: What about the TGI of the same molecule?
Answer: Its TGI is > 100 µM.

Question: For `CCN1CCN(c2ccc(Nc3cc(N(C)C(=O)Nc4c(Cl)c(OC)cc(OC)c4Cl)ncn3)cc2)CC1`, which GI50 is on record?
Answer: Its GI50 is 2.62 µM.

Question: And the TGI?
Answer: Its TGI is 11 µM.

Question: What does the source list for `CC(C)c1ccc(Nc2ccc3c(OCCCN4CCN(C)CC4)cccc3n2)cc1`?
Answer: GI50: 15.6 µM; TGI: 31.9 µM

Question: How did the GI50 turn out when `COc1ccc(N(C)c2ncnc3occ(C)c23)cc1` was run?
Answer: Its GI50 is < 0.01 µM.

Question: What about the TGI of the same molecule?
Answer: The TGI was > 100 µM.

Question: Which results are given for `COc1ccc2c(c1)C(C)Cc1c(Cl)ncnc1N2C` (stereo not drawn)?
Answer: GI50: 1.29 µM; TGI: 23.6 µM

Question: `COCCOc1cc(F)c2c(Nc3ccc(NC(=O)Cn4cc(C(C)C)nn4)cc3)ncnc2c1` was tested. Which GI50 did it give?
Answer: Its GI50 is 71.6 µM.

Question: And the TGI?
Answer: The TGI was > 100 µM.

Question: With `C#Cc1cccc(Nc2ncnc3cc(OC)c(OCCCCCCC(=O)NO)cc23)c1` as the molecule, how does the GI50 read?
Answer: The GI50 was 0.129 µM.

Question: What about the TGI of the same molecule?
Answer: The TGI was 4.21 µM.

Question: How did the TGI turn out when `Cc1nnc(S(=O)(=O)c2ccc(N=Nc3c(N)nc(N)nc3N)cc2)s1` was run?
Answer: The TGI was > 100 µM.

Question: With `O=c1n(CC2CO2)c(=O)n(CC2CO2)c(=O)n1CC1CO1` (stereo not drawn) as the molecule, how does the GI50 read?
Answer: Its GI50 is 17.7 µM and 3.55 µM.

Question: What about the TGI of the same molecule?
Answer: The TGI was 52 µM and 88.1 µM and > 100 µM.

Question: `Cc1ccc(C(SCC(N)C(=O)O)(c2ccccc2)c2ccc(C)cc2)cc1` (stereo not drawn) was tested. Which GI50 did it give?
Answer: The GI50 was 2.33 µM.

Question: And the TGI?
Answer: Its TGI is 23.8 µM.

Question: What does the source list for `COc1cc(Nc2cn[nH]c2-c2ccc(Cl)cc2)cc(OC)c1OC`?
Answer: GI50: 8.68 µM; TGI: > 100 µM

Question: Which GI50 does the source give for `O=C(c1ccccc1)c1cc(Cl)ccc1OCCCCN1CCN(CCCCOc2ccc(Cl)cc2C(=O)c2ccccc2)CC1` here?
Answer: The GI50 was 4.48 µM.

Question: And the TGI?
Answer: Its TGI is 18 µM.

Question: For `CNCCNc1c2c(c(NCCNC)c3c(CN(C)C)c[nH]c13)C(=O)c1ccccc1C2=O`, which GI50 is on record?
Answer: The GI50 was 0.788 µM.

Question: What about the TGI of the same molecule?
Answer: The TGI was 7.47 µM.

Question: `Clc1ccc2c(NCCCNc3nccc(Nc4ccc(Br)cc4)n3)ccnc2c1` was tested. Which GI50 did it give?
Answer: The GI50 was 1.69 µM.

Question: What about the TGI of the same molecule?
Answer: Its TGI is 3.37 µM.

Tested on: TK-10 renal
Assay: NCI anticancer screen, dose series, 48 h

Question: With `CC(SC(C)C(=O)N/N=C/c1cccc(Cl)c1)C(=O)N/N=C\c1cccc(Cl)c1` (stereo not drawn) as the molecule, how does the GI50 read?
Answer: Its GI50 is 4.66 µM.

Question: What about the TGI of the same molecule?
Answer: The TGI was 18.1 µM.

Question: Which results are given for `CCOC(=O)/C=C/C(C(=O)/C=C/c1ccc(OC2CCCCO2)c(OC)c1)=C(O)\C=C\c1ccc(OC2CCCCO2)c(OC)c1` (stereo not drawn)?
Answer: GI50: 2.84 µM; TGI: 9.21 µM

Question: Which GI50 does the source give for `Cc1ccc(Cl)cc1Nc1nc(C(F)(F)F)ccc1C(=O)N1CCN(c2ccc(F)cc2)CC1` here?
Answer: The GI50 was 11.2 µM.

Question: And the TGI?
Answer: Its TGI is 26.4 µM.

Question: Which GI50 does the source give for `O=C(Nc1ccc(OS(=O)(=O)c2ccccc2)cc1)C12CC3CC(CC(C3)C1)C2` here?
Answer: The GI50 was > 100 µM.

Question: What about the TGI of the same molecule?
Answer: Its TGI is > 100 µM.

Question: What does the source list for `O=S(=O)([O-])c1ccc2c(c1)-c1nc-2nc2[n-]c(nc3nc(nc4[n-]c(n1)c1ccc(S(=O)(=O)[O-])cc41)-c1cc(S(=O)(=O)[O-])ccc1-3)c1ccc(S(=O)(=O)[O-])cc21.[Cu+2].[Na+]`?
Answer: GI50: > 55.9 µM; TGI: > 100 µM

Question: Which results are given for `CCN1CCN(c2ccc(Nc3cc(N(C)C(=O)Nc4c(Cl)c(OC)cc(OC)c4Cl)ncn3)cc2)CC1`?
Answer: GI50: 2.5 µM; TGI: 12.5 µM

Question: For `CC(C)c1ccc(Nc2ccc3c(OCCCN4CCN(C)CC4)cccc3n2)cc1`, which GI50 is on record?
Answer: Its GI50 is 16.5 µM.

Question: What about the TGI of the same molecule?
Answer: The TGI was 30.7 µM.

Question: With `COc1ccc(N(C)c2ncnc3occ(C)c23)cc1` as the molecule, how does the GI50 read?
Answer: The GI50 was 55.6 µM.

Question: What about the TGI of the same molecule?
Answer: Its TGI is > 100 µM.

Question: Which GI50 does the source give for `COc1ccc2c(c1)C(C)Cc1c(Cl)ncnc1N2C` (stereo not drawn) here?
Answer: Its GI50 is 1.06 µM.

Question: What about the TGI of the same molecule?
Answer: Its TGI is 18.8 µM.
